As usually defined, the melting point is the temperature of the solid-liquid transition. Consider `CCOC(=O)c1[nH]c2cc(Cl)c(Cl)cc2c1-c1ccc(Cl)cc1Cl`, for which the melting point fell in the range of 160 to 161 °C.

`CC1CCN(CCCC(=O)c2ccc3c(c2)C(=O)c2cc(C(=O)CCCN4CCC(C)CC4)ccc2-3)CC1` showed a melting point of 178 to 180 °C.

In the case of `Cc1sc(-c2cccs2)cc1Br`, the melting point was 36 to 37 °C.

`CN(C)CCOc1ccc(O)c(C=NCCN=Cc2cc(OCCN(C)C)ccc2O)c1` showed a melting point of 84 to 86 °C.

In turn, `Nc1ccc(-c2n[nH]c(-c3ccncc3)n2)cc1` returned a melting point of 251 to 252 °C.

For the compound `CCOC(=O)C(OCc1ccc(-c2ccc(Cl)cc2)cc1)c1ccccc1` (centres undefined), the melting point fell in the range of 50 to 51 °C.

`CNC(=S)c1c(C(F)(F)F)nc(C(F)F)c(C(=O)OC)c1NC(C)C` came in with a melting point of 129 to 131 °C.

The compound `Cc1c(F)cc(C(=O)NCC2CC2)cc1-c1ccc(C(=O)NCC(C)(C)C)cc1C(=O)Nc1nccs1` came in with a melting point of 179 to 183 °C.

`O=C(O)c1ccc(OC(=O)c2cccc(C34CC5CC(CC(C5)C3)C4)c2)cc1` yielded a melting point of 237 to 239 °C.

`CC(C)C[C@H](NC(=O)COc1ccc(Cl)cc1)C(=O)N[C@@H](Cc1ccccc1)C(=O)CSCc1ccco1` returned a melting point of 116 to 117 °C.

Take `CC(=O)OCc1nc([N+](=O)[O-])c(Br)n1C`: the melting point fell in the range of 92 to 97 °C.

As to `CN1CCN(c2c(F)c(NCc3ccccc3)c3c(=O)c(C(=O)O)cn(C4CC4)c3c2F)CC1`, the melting point lay in the range of 132 to 133 °C.

As to `CN(C)CCc1[nH]c2ccccc2c1CSc1nccn1C`, the melting point fell in the range of 152 to 154 °C.

`CCc1nc2c(N)nc3ccccc3c2n1CCOCCNC(=O)c1ccccc1`: the melting point fell in the range of 188 to 191 °C.

Take `C/C=C/CNC(=O)N1CC(Oc2cccc(C(F)(F)F)c2)C1`: the melting point lay in the range of 127 to 128 °C.

`O=C(O)c1cc(Oc2ccc(Cl)cc2Cl)ccc1Br` came in with a melting point of 132 to 133 °C.

Take `CC(=O)Oc1c(C)cc2c(c1C)C(C)CN2C(C)=O` (centres undefined): the melting point was in the range of 128 to 130 °C.

On to `O=C(NCCN1CCOCC1)c1ccc2cc(C(=O)O)[nH]c2c1`, for which the melting point is 227 to 233 °C.

Take `CC(=O)c1cc(Cl)cc(Oc2ncccc2C(=O)NCc2ccc(C(C)(C)O)cc2Cl)c1`: the melting point fell in the range of 58 to 60 °C.

`CC(=O)N(C)c1ccc(C(=O)N2CCN(CCc3ccc(Br)cc3)CC2)cc1` displayed a melting point of 161 to 162 °C.

`CCCCCCc1ccc(-c2ccc(OC(=O)C3(C#N)CCCC(C)C3)cc2)cc1` (centres undefined) came in with a melting point of 51 °C.

For `CN(CCO)c1ccc([N+](=O)[O-])cn1`, the melting point fell in the range of 83 to 84 °C.

For `CCOC(=O)/C=C/C(=O)N1C[C@H](NC(=O)OCc2ccccc2)C1=O`, the melting point came out at 68 °C.

`CCC(CC)c1nnc(SC)n(N)c1=O` showed a melting point of 50 to 56 °C.

`Cc1noc(NS(=O)(=O)c2ccccc2-c2ccc(-c3cocn3)cc2)c1C` displayed a melting point of 85 to 93 °C.

As to `CC(Cc1ccc(CC2SC(=O)NC2=O)cc1)NCC(O)c1cc(Cl)c(N)c(Cl)c1` (centres undefined), the melting point lay in the range of 195 to 201 °C.

As to `Clc1ccc(CN2CCN(CCN3CCCCC3)CC2c2ccccc2)cc1` (centres undefined), the melting point was in the range of 85 to 87 °C.

With `CCC(=CC(CNC(=O)c1cccnc1C)=NO)C(C)[N+](=O)[O-]` (centres undefined), the melting point lay within 128 to 129 °C.

On to `COC(=O)CCc1ccc(Sc2ccccc2C(=O)O)c([N+](=O)[O-])c1`, for which the melting point was 160 to 161 °C.

In turn, `CCC(=O)c1cc(Cl)c(Cl)c2c1OCC(C(=O)O)O2` (centres undefined) had a melting point of 229 to 231 °C.

Compound `CC(O)CC1NC(=O)c2ccccc21` (centres undefined) registered a melting point of 100 to 102 °C.

Compound `CN1CCN(c2ccc(C(=O)N[C@H]3CC[C@H](CCN4CCC(c5cccc6c5CCO6)CC4)CC3)cc2)CC1` returned a melting point of 241 °C.

In the case of `CC(C)c1ccc(S(=O)(=O)Nc2ccccc2C(=O)NCCc2ncc[nH]2)cc1`, the melting point lay in the range of 210 to 218 °C.

The compound `CCN(CC)CCNC(=O)c1cc(Cl)c(N)cc1OCC(=O)c1cccs1` returned a melting point of 135 to 139 °C.

Values taken from a melting point compilation (Tetko et al.; mined from patent text by program, amines drawn as free bases though some values may be those of a salt).
